Here are results for 17 compounds from PubChem BioAssay (NCI).

Values joined by “and” are separate entries in the source; they are usually repeats but may differ in a detail not shown here. Equal entries are not always repeated.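 96-well plates; 48 h exposure; 5 concentrations. Endpoints by linear interpolation between flanking doses. Not reached: highest tested concentration assigned. At the GI50, growth is halved. TGI: concentration producing complete growth inhibition.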

The first assay deals with SK-MEL-2 melanoma. The assay can be described thus: growth of human tumour cells (NCI), 48 h.
Consider `C[C@@]12C[C@@H](c3ccccc3O1)N1CCCCSC1=N2`, for which the TGI is greater than 100 µM.
For `C=C1c2nc3ccccc3n2C=C(c2ccccc2)N1c1ccc([N+](=O)[O-])cc1`, the TGI was found to be 56.3 µM.
Same read-out and setting: the figure for `O=c1[nH]cc(N=Cc2cc(Cl)cc(Cl)c2O)c(=O)[nH]1` is 41.6 µM.
As for `Cc1c2cnccc2c(C)c2c1c1ccccc1n2CCCN`, the GI50 is 0.348 µM; the TGI was 1.59 µM and 1.42 µM.
`O=C(O)c1cccc2c1/C(=N/Nc1ccccc1)CC2`: the TGI was greater than 100 µM.
Consider `O=C(NNC(=O)c1ccccc1SSc1ccccc1C(=O)NNC(=O)c1ccccc1S)c1ccccc1S`, for which the TGI was greater than 90.5 µM.
On the same count and under the same terms, the same measure for `CC1(C)N=C(/C(Cl)=[N+](/[O-])C(=O)c2ccc(F)cc2)C(C)(C)N1O`: 40.3 µM; for `CN1CCN([C@H]2C[C@H]3[C@@H]4CC=C5C[C@@H](O)CC[C@]5(C)[C@H]4CC[C@]3(C)C2=O)CC1`: greater than 100 µM; for `CCNC(=S)N/N=C/c1cc([N+](=O)[O-])ccc1O`: greater than 100 µM.
In turn, `Cc1cc(O)c2c(=O)c3ccccc3[nH]c2c1` registered a TGI greater than 100 µM.
In turn, `Clc1cc(OC2C3CC4CC(C3)CC2C4)nc(Cl)n1` (stereo unspecified) showed a TGI of 25.8 µM.
Take `Cc1ccc(SCC(CSCCO)OCn2cnc3c2NC(N)=NC32OCCO2)cc1` (stereo unspecified): the TGI was greater than 100 µM.
For `COc1cc(/C=C/C(=N\NS(=O)(=O)c2ccc(C)cc2)c2sc(NNC(C)=O)nc2C)ccc1O`, the TGI is greater than 100 µM.
Take `O=[N+]([O-])/C(C(Cl)=C(Cl)Cl)=C(\SCc1ccccc1)N1CCCCC1`: the TGI is 55 µM.

The next assay deals with SK-MEL-28 melanoma. The experiment in a line: growth of human tumour cells (NCI), 48 h.
The compound `C[C@@]12C[C@@H](c3ccccc3O1)N1CCCCSC1=N2` displayed a TGI greater than 100 µM.
In the case of `COc1ccc(N2C(=O)C3c4[nH]c5ccccc5c4C4CCC(C(C)(C)C)CC4C3C2=O)c(C)c1` (stereo unspecified), the TGI is greater than 100 µM.
Compound `C=C1c2nc3ccccc3n2C=C(c2ccccc2)N1c1ccc([N+](=O)[O-])cc1` came in with a TGI greater than 65.2 µM.
With `O=c1[nH]cc(N=Cc2cc(Cl)cc(Cl)c2O)c(=O)[nH]1`, the TGI was determined as 54.5 µM.
Take `Cc1c2cnccc2c(C)c2c1c1ccccc1n2CCCN`: the GI50 is 0.333 µM; the TGI is 1.98 µM and 1.25 µM.
In the case of `O=C(O)c1cccc2c1/C(=N/Nc1ccccc1)CC2`, the TGI is greater than 100 µM.
Regarding `O=C(NNC(=O)c1ccccc1SSc1ccccc1C(=O)NNC(=O)c1ccccc1S)c1ccccc1S`, the TGI was greater than 91.7 µM.
For `CC1(C)N=C(/C(Cl)=[N+](/[O-])C(=O)c2ccc(F)cc2)C(C)(C)N1O`, the TGI turned out to be 32.4 µM.
The same measure, in the same setting: the same measure for `CN1CCN([C@H]2C[C@H]3[C@@H]4CC=C5C[C@@H](O)CC[C@]5(C)[C@H]4CC[C@]3(C)C2=O)CC1`: greater than 100 µM.
Compound `CCNC(=S)N/N=C/c1cc([N+](=O)[O-])ccc1O` registered a TGI greater than 100 µM.
`Cc1cc(O)c2c(=O)c3ccccc3[nH]c2c1` registered a TGI greater than 100 µM.
On to `Oc1cccc2c(Cl)ccnc12`, for which the TGI turned out to be 35.9 µM.
Still for that read-out and setting: the same measure for `Clc1cc(OC2C3CC4CC(C3)CC2C4)nc(Cl)n1` (stereo unspecified): 29.1 µM; for `Cc1ccc(SCC(CSCCO)OCn2cnc3c2NC(N)=NC32OCCO2)cc1` (stereo unspecified): greater than 100 µM; for `COc1cc(/C=C/C(=N\NS(=O)(=O)c2ccc(C)cc2)c2sc(NNC(C)=O)nc2C)ccc1O`: greater than 100 µM.
The compound `O=[N+]([O-])/C(C(Cl)=C(Cl)Cl)=C(\SCc1ccccc1)N1CCCCC1` had a TGI greater than 100 µM.
Regarding `Nc1cccc2cc(Cl)cnc12`, the TGI was greater than 100 µM.

The subject of the next assay is OVCAR-5 ovarian. The experiment in a line: growth of human tumour cells (NCI), 48 h.
As to `C[C@@]12C[C@@H](c3ccccc3O1)N1CCCCSC1=N2`, the TGI is greater than 100 µM.
The compound `C=C1c2nc3ccccc3n2C=C(c2ccccc2)N1c1ccc([N+](=O)[O-])cc1` returned a TGI of 40.7 µM.
Compound `O=c1[nH]cc(N=Cc2cc(Cl)cc(Cl)c2O)c(=O)[nH]1` had a TGI greater than 100 µM.
For `Cc1c2cnccc2c(C)c2c1c1ccccc1n2CCCN`, the GI50 is 0.196 µM; the TGI is 1.71 µM and 0.874 µM.
`O=C(O)c1cccc2c1/C(=N/Nc1ccccc1)CC2`: the TGI was greater than 100 µM.
The compound `O=C(NNC(=O)c1ccccc1SSc1ccccc1C(=O)NNC(=O)c1ccccc1S)c1ccccc1S` registered a TGI greater than 100 µM.
The same measure, in the same setting: the figure for `CC1(C)N=C(/C(Cl)=[N+](/[O-])C(=O)c2ccc(F)cc2)C(C)(C)N1O` is 36.1 µM.
Take `CN1CCN([C@H]2C[C@H]3[C@@H]4CC=C5C[C@@H](O)CC[C@]5(C)[C@H]4CC[C@]3(C)C2=O)CC1`: the TGI is greater than 100 µM.
`CCNC(=S)N/N=C/c1cc([N+](=O)[O-])ccc1O` yielded a TGI greater than 100 µM.
In turn, `Cc1cc(O)c2c(=O)c3ccccc3[nH]c2c1` returned a TGI greater than 100 µM.
In turn, `Oc1cccc2c(Cl)ccnc12` showed a TGI greater than 50.4 µM.
`Clc1cc(OC2C3CC4CC(C3)CC2C4)nc(Cl)n1` (stereo unspecified) registered a TGI of 44.2 µM.
`Cc1ccc(SCC(CSCCO)OCn2cnc3c2NC(N)=NC32OCCO2)cc1` (stereo unspecified) returned a TGI greater than 100 µM.
Compound `COc1cc(/C=C/C(=N\NS(=O)(=O)c2ccc(C)cc2)c2sc(NNC(C)=O)nc2C)ccc1O` yielded a TGI greater than 100 µM.
As to `O=[N+]([O-])/C(C(Cl)=C(Cl)Cl)=C(\SCc1ccccc1)N1CCCCC1`, the TGI was 43.9 µM.
Compound `Nc1cccc2cc(Cl)cnc12` came in with a TGI greater than 100 µM.

The next assay has as its system PC-3 prostate. The experiment in a line: growth of human tumour cells (NCI), 48 h.
Compound `C[C@@]12C[C@@H](c3ccccc3O1)N1CCCCSC1=N2` registered a TGI greater than 100 µM.
Consider `COc1ccc(N2C(=O)C3c4[nH]c5ccccc5c4C4CCC(C(C)(C)C)CC4C3C2=O)c(C)c1` (stereo unspecified), for which the TGI is greater than 100 µM.
As for `C=C1c2nc3ccccc3n2C=C(c2ccccc2)N1c1ccc([N+](=O)[O-])cc1`, the TGI was 68.2 µM.
The compound `O=c1[nH]cc(N=Cc2cc(Cl)cc(Cl)c2O)c(=O)[nH]1` yielded a TGI of 98.3 µM.
The compound `Cc1c2cnccc2c(C)c2c1c1ccccc1n2CCCN` displayed a TGI of 0.644 µM.
The compound `O=C(O)c1cccc2c1/C(=N/Nc1ccccc1)CC2` registered a TGI greater than 100 µM.
Consider `O=C(NNC(=O)c1ccccc1SSc1ccccc1C(=O)NNC(=O)c1ccccc1S)c1ccccc1S`, for which the TGI was greater than 74.9 µM.
`CC1(C)N=C(/C(Cl)=[N+](/[O-])C(=O)c2ccc(F)cc2)C(C)(C)N1O` registered a TGI of 31.3 µM.
Same read-out and setting: the same measure for `CN1CCN([C@H]2C[C@H]3[C@@H]4CC=C5C[C@@H](O)CC[C@]5(C)[C@H]4CC[C@]3(C)C2=O)CC1`: greater than 100 µM.
Still for that read-out and setting: the figure for `CCNC(=S)N/N=C/c1cc([N+](=O)[O-])ccc1O` is greater than 100 µM.
In turn, `Cc1cc(O)c2c(=O)c3ccccc3[nH]c2c1` yielded a TGI of 77.3 µM.
`Oc1cccc2c(Cl)ccnc12` displayed a TGI greater than 100 µM.
Regarding `Clc1cc(OC2C3CC4CC(C3)CC2C4)nc(Cl)n1` (stereo unspecified), the TGI stood at 37.9 µM.
Take `Cc1ccc(SCC(CSCCO)OCn2cnc3c2NC(N)=NC32OCCO2)cc1` (stereo unspecified): the TGI is greater than 100 µM.
Take `COc1cc(/C=C/C(=N\NS(=O)(=O)c2ccc(C)cc2)c2sc(NNC(C)=O)nc2C)ccc1O`: the TGI is greater than 100 µM.
Same read-out and setting: the same measure for `O=[N+]([O-])/C(C(Cl)=C(Cl)Cl)=C(\SCc1ccccc1)N1CCCCC1`: 74.8 µM.
With `Nc1cccc2cc(Cl)cnc12`, the TGI is greater than 100 µM.

The test system of the next assay is EKVX NSCLC. The experiment in a line: growth of human tumour cells (NCI), 48 h.
The compound `C[C@@]12C[C@@H](c3ccccc3O1)N1CCCCSC1=N2` returned a TGI greater than 100 µM.
Take `COc1ccc(N2C(=O)C3c4[nH]c5ccccc5c4C4CCC(C(C)(C)C)CC4C3C2=O)c(C)c1` (stereo unspecified): the TGI is greater than 100 µM.
`C=C1c2nc3ccccc3n2C=C(c2ccccc2)N1c1ccc([N+](=O)[O-])cc1`: the TGI was found to be 24.8 µM.
The same measure, in the same setting: the same measure for `O=c1[nH]cc(N=Cc2cc(Cl)cc(Cl)c2O)c(=O)[nH]1`: greater than 100 µM.
Consider `Cc1c2cnccc2c(C)c2c1c1ccccc1n2CCCN`, for which the GI50 was 0.153 µM; the TGI is 1.37 µM and 0.506 µM.
`O=C(O)c1cccc2c1/C(=N/Nc1ccccc1)CC2`: the TGI is greater than 100 µM.
For the compound `O=C(NNC(=O)c1ccccc1SSc1ccccc1C(=O)NNC(=O)c1ccccc1S)c1ccccc1S`, the TGI is greater than 71.5 µM.
Compound `CC1(C)N=C(/C(Cl)=[N+](/[O-])C(=O)c2ccc(F)cc2)C(C)(C)N1O` gave a TGI of 40.6 µM.
Take `CN1CCN([C@H]2C[C@H]3[C@@H]4CC=C5C[C@@H](O)CC[C@]5(C)[C@H]4CC[C@]3(C)C2=O)CC1`: the TGI is greater than 100 µM.
`CCNC(=S)N/N=C/c1cc([N+](=O)[O-])ccc1O` gave a TGI greater than 100 µM.
The compound `Cc1cc(O)c2c(=O)c3ccccc3[nH]c2c1` came in with a TGI greater than 100 µM.
For the compound `Oc1cccc2c(Cl)ccnc12`, the TGI was greater than 30.8 µM.
The same measure, in the same setting: the same measure for `Clc1cc(OC2C3CC4CC(C3)CC2C4)nc(Cl)n1` (stereo unspecified): 29.6 µM; for `Cc1ccc(SCC(CSCCO)OCn2cnc3c2NC(N)=NC32OCCO2)cc1` (stereo unspecified): greater than 100 µM; for `COc1cc(/C=C/C(=N\NS(=O)(=O)c2ccc(C)cc2)c2sc(NNC(C)=O)nc2C)ccc1O`: greater than 100 µM.
Compound `O=[N+]([O-])/C(C(Cl)=C(Cl)Cl)=C(\SCc1ccccc1)N1CCCCC1` yielded a TGI greater than 100 µM.
Turning to `Nc1cccc2cc(Cl)cnc12`, the TGI is greater than 100 µM.

For the next assay, the system named is NCI-H226 lung. The assay can be described thus: growth of human tumour cells (NCI), 48 h.
Turning to `C[C@@]12C[C@@H](c3ccccc3O1)N1CCCCSC1=N2`, the TGI is greater than 100 µM.
`COc1ccc(N2C(=O)C3c4[nH]c5ccccc5c4C4CCC(C(C)(C)C)CC4C3C2=O)c(C)c1` (stereo unspecified) registered a TGI greater than 100 µM.
`C=C1c2nc3ccccc3n2C=C(c2ccccc2)N1c1ccc([N+](=O)[O-])cc1` displayed a TGI of 27.6 µM.
Compound `O=c1[nH]cc(N=Cc2cc(Cl)cc(Cl)c2O)c(=O)[nH]1` registered a TGI of 62.1 µM.
In the case of `Cc1c2cnccc2c(C)c2c1c1ccccc1n2CCCN`, the GI50 is 1.18 µM; the TGI is 1.86 µM and 2.78 µM.
With `O=C(O)c1cccc2c1/C(=N/Nc1ccccc1)CC2`, the TGI is 98.9 µM.
Still for that read-out and setting: the same measure for `O=C(NNC(=O)c1ccccc1SSc1ccccc1C(=O)NNC(=O)c1ccccc1S)c1ccccc1S`: greater than 100 µM.
Regarding `CC1(C)N=C(/C(Cl)=[N+](/[O-])C(=O)c2ccc(F)cc2)C(C)(C)N1O`, the TGI came to 42.2 µM.
Turning to `CN1CCN([C@H]2C[C@H]3[C@@H]4CC=C5C[C@@H](O)CC[C@]5(C)[C@H]4CC[C@]3(C)C2=O)CC1`, the TGI is greater than 100 µM.
On to `CCNC(=S)N/N=C/c1cc([N+](=O)[O-])ccc1O`, for which the TGI was greater than 100 µM.
Consider `Cc1cc(O)c2c(=O)c3ccccc3[nH]c2c1`, for which the TGI amounted to 94.3 µM.
The same measure, in the same setting: the same measure for `Oc1cccc2c(Cl)ccnc12`: greater than 100 µM; for `COc1cc(/C=C/C(=N\NS(=O)(=O)c2ccc(C)cc2)c2sc(NNC(C)=O)nc2C)ccc1O`: greater than 100 µM.
As to `O=[N+]([O-])/C(C(Cl)=C(Cl)Cl)=C(\SCc1ccccc1)N1CCCCC1`, the TGI turned out to be 53.2 µM.
`Nc1cccc2cc(Cl)cnc12` displayed a TGI greater than 100 µM.
